Counter-ions that a name gives are not always drawn. Like-named read-outs stand apart in the source and are kept apart here.

Among the data in US5334715A, “1-piperazinyl-2-butenes and -2-butynes” (Hoechst-Roussel Pharmaceuticals Inc., priority 1993, dated 1994) are ED50 values, retold here.

This test relates to apomorphine-induced climbing. In words: climbing mice assay: block of apomorphine-induced climbing (antipsychotic activity). The class given is in vivo, CK-1 male mice. The settings on record: Mus musculus, ip, read-out: Antipsychotic Activity ED50. The method, then:
The subject CK-1 male mice (23-27 grams) are […] under standard laboratory conditions. The mice are individually placed in wire mesh stick cages (4"×4"10") and are allowed one hour for adaptation and exploration of the new environment.
For evaluation of climbing, 3 readings are taken at 10, 20, and 30 minutes after apomorphine administration according to the following scale:
2 paws on wall (rearing)
4 paws on the wall (full climbing)
Mice consistently climbing before the injections of apomorphine will be discarded.
With full-developed apomorphine climbing, the animals are hanging onto the cage walls, rather motionless, over long periods of time. By contrast, climbs due to mere motor stimulation usually only last a few seconds.
The climbing scores are individually totaled (maximal score: 6 per mouse over 3 readings) and the total score of the control group (vehicle intraperitoneally-apomorphine subcutaneously) is set 100%.

The mark [1] stands for this setting: mice, intraperitoneal 30 minutes prior to apomorphine 1.5 mg/kg s.c., climbing readings at 10, 20, 30 minutes, linear regression.

For orientation: ED50 means the midpoint of the dose-response relation. For `CCN1CCCC1CNC(=O)c1cc(S(N)(=O)=O)ccc1OC` (stereo not drawn) [Sulpiride, reference compound], the ED50 under setting [1] came out at 4.5 mg/kg. The same measure, in the same setting: to `COc1ccccc1N1CCN(C/C=C/CN2C(=O)c3ccccc3C2=O)CC1` [E-1-(N-Phthalimido)-4-[4-(2-methoxyphenyl)-1-piperazinyl]-2-butene hydrochloride hemihydrate] belongs 7.3 mg/kg; to `COc1ccccc1N1CCN(C/C=C\CN2C(=O)CSC2=O)CC1` [Z-1-(3-Thiazolidine-2,4-dione)-4-[4-(2-methoxyphenyl)-1-piperazinyl]-2-butene dihydrochloride], 19.8 mg/kg. On the same count and under the same terms, to `COc1ccccc1N1CCN(C/C=C\CN2C(=O)c3ccccc3C2=O)CC1` [Z-1-(N-Phthalimido)-4-[4-(2-methoxyphenyl)-4-piperazinyl)]-2-butene dihydrochloride] belongs 10.3 mg/kg. For the compound `O=C(CCCN1CCC(O)(c2ccc(Cl)cc2)CC1)c1ccc(F)cc1` [Haloperidol, reference compound], the ED50 was 0.11 mg/kg.

Turning to `COc1ccccc1N1CCN(C/C=C\CN2C(=O)c3ccc(Cl)cc3C2=O)CC1` [Z-1-N-(4-Chlorophthalimido)-4-[4-(2-methoxyphenyl)-1-piperazinyl]-2-butene dihydrochloride hemihydrate], under setting [1], the ED50 was found to be 15.4 mg/kg.
